Measured values reported in ChEMBL document CHEMBL1151346, “Alkaloids of Thalictrum XXXIV. Three New Alkaloids, Thalmirabine, Thalistine, and O-Methylthalibrine, and Others From Roots of Thalictrum minus Race B” (1980).
≈ marks a conversion by molar mass, not a printed value.

Legend:
Assay type in all cases: functional
Candida albicans = assay: Antimicrobial activity against Candida albicans
[1] = tested on: Mycolicibacterium smegmatis; assay: Antimicrobial activity against Mycobacterium smegmatis
Staphylococcus aureus = assay: Antimicrobial activity against Staphylococcus aureus

MIC (Candida albicans) [µg/mL]	MIC [1] [µg/mL]	MIC (Staphylococcus aureus) [µg/mL]	SMILES
500 (≈ 783 µM)	100 (≈ 157 µM)		COc1cc2c(cc1OC)[C@H](Cc1ccc(Oc3cc(C[C@H]4c5cc(OC)c(OC)cc5CCN4C)ccc3OC)cc1)N(C)CC2
	100 (≈ 150 µM)		COc1ccc2cc1Oc1ccc(cc1)C[C@H]1c3c(c(O)c(OC)c(OC)c3Oc3c4c(cc(OC)c3OC)[C@H](C2)N(C)CC4)CCN1C [THALIMIRABINE]
	100 (≈ 150 µM)	1000 (≈ 1500 µM)	COc1ccc(C[C@H]2c3cc(OC)c(OC)c(O)c3CCN2C)cc1Oc1ccc(C[C@H]2c3cc4c(c(OC)c3CCN2C)OCO4)cc1 [THALISTINE]
